{"source": "patent US9624233B2", "about": "“Compounds for treating pruritic conditions” (priority 2015, dated 2017)", "key": {"5-HT2B (h)": {"target": "5-HT2B (h) (Homo sapiens, UniProt P41595)", "sequence (P41595 whole entry)": "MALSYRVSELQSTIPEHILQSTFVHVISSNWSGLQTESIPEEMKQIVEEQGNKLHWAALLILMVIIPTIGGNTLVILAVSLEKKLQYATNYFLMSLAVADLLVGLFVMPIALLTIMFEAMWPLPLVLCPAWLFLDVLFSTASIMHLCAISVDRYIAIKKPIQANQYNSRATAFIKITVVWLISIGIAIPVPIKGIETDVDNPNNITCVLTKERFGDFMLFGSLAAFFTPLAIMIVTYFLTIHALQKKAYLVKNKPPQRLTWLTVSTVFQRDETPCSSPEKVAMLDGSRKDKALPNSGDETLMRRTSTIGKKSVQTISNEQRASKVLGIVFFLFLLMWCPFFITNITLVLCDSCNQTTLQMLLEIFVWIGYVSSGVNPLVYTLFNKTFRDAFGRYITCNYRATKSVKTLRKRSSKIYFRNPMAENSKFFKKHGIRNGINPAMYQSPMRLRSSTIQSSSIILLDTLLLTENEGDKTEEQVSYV", "test": "Abuse liability binding screen, 5-HT2B (h) (agonist radioligand)", "settings": "2.5E−05M", "description": "(§1) […]. The abuse liability screen included 44 targets (receptors, transporters, on gated-channel systems) related to the dopamine, norepinephrine, serotonin, gamma-aminobutyric acid (GABA), acetylcholine, N-methyl-D-aspartate (NMDA) cannabinoid and opioid neurotransmitter systems as recommended in FDA Draft guidance on Assessment of Abuse Potential of Drugs, January 2010.\n(§2) Compound binding was calculated as a % inhibition of the binding of a radioactively labeled ligand specific for each target.\n(§3) Results showing an inhibition or stimulation higher than 50% are considered to represent significant effects of the test compounds."}, "Dopamine transporter (h)": {"target": "Dopamine transporter (h) (Homo sapiens, UniProt Q01959)", "sequence (Q01959 whole entry)": "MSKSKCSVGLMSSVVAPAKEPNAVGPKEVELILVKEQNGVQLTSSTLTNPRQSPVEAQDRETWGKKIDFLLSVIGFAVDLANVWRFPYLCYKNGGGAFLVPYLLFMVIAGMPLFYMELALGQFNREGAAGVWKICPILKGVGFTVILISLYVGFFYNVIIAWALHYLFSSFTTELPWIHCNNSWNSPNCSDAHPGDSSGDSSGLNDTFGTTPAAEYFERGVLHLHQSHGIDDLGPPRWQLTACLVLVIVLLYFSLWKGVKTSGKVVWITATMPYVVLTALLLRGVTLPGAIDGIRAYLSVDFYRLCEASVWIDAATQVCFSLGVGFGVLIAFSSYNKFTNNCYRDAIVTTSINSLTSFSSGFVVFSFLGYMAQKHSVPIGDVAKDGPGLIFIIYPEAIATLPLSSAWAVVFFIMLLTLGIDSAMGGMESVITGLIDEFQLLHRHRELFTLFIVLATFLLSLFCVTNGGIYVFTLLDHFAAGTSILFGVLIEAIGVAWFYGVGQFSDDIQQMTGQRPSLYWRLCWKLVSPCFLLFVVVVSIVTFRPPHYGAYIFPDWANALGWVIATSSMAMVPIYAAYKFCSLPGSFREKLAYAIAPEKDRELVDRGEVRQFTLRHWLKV", "test": "Abuse liability binding screen, Dopamine transporter (h) (antagonist radioligand)", "settings": "2.5E−05M", "description": "as §1, §2, §3"}, "5-HT2c (h)": {"target": "T1, 5-HT2c (h) (Homo sapiens, UniProt P28335)", "T1 sequence (P28335 33-458)": "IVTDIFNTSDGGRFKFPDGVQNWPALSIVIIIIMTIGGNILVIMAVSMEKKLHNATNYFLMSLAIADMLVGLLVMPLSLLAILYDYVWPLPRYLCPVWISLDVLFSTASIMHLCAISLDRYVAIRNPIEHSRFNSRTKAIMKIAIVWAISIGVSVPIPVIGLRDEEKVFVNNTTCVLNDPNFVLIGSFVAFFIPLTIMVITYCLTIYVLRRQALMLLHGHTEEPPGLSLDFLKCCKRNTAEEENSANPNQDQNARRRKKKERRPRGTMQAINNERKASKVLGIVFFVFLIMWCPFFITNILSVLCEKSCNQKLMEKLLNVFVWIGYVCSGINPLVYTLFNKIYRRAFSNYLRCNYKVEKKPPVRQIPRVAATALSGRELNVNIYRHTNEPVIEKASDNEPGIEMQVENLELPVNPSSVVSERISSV", "test": "Abuse liability binding screen, 5-HT2c (h) (agonist radioligand)", "settings": "2.5E−05M", "description": "as §2"}, "[1]": {"test": "Plasma Cmax in HD patients", "settings": "read-out: Cmax in HD patients, HD patients"}, "N neuronal α4β2 (h)": {"target": "N neuronal α4β2 (h) (Homo sapiens, UniProt P17787+P43681)", "sequence (P43681 29-627 limits assumed)": "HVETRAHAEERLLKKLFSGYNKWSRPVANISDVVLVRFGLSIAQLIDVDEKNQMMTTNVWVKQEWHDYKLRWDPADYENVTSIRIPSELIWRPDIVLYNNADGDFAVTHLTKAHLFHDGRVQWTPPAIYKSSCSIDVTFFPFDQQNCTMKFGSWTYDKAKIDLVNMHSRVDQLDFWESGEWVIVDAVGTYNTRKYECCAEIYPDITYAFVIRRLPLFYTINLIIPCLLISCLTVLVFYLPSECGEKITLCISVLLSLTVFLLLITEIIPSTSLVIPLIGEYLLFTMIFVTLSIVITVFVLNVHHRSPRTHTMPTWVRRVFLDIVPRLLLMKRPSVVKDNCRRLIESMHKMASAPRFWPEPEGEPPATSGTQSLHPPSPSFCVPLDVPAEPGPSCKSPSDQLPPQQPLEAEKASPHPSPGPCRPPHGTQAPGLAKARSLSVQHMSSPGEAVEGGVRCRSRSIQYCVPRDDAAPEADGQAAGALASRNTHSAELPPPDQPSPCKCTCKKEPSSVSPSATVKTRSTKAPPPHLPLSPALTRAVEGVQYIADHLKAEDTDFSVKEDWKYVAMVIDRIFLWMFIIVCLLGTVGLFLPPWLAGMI", "sequence (P17787 26-502)": "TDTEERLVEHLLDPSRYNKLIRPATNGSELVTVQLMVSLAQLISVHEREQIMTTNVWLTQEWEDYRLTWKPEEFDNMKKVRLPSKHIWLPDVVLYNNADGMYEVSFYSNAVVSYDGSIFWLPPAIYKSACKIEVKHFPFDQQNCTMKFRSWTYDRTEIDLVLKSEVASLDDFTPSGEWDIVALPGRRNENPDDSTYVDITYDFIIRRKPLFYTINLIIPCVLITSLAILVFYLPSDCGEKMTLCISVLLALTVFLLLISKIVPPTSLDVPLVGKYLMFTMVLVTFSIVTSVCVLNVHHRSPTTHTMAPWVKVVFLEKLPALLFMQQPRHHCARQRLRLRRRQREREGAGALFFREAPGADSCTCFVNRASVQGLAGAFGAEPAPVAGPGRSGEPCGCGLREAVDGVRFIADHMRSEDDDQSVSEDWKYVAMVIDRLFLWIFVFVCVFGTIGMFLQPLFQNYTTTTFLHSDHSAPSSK", "test": "Abuse liability binding screen, N neuronal α4β2 (h) (agonist radioligand)", "settings": "2.5E−05M", "description": "as §2"}, "δ2 (DOP) (h)": {"target": "δ2 (DOP) (h) (Homo sapiens, UniProt P41143)", "sequence (P41143 whole entry)": "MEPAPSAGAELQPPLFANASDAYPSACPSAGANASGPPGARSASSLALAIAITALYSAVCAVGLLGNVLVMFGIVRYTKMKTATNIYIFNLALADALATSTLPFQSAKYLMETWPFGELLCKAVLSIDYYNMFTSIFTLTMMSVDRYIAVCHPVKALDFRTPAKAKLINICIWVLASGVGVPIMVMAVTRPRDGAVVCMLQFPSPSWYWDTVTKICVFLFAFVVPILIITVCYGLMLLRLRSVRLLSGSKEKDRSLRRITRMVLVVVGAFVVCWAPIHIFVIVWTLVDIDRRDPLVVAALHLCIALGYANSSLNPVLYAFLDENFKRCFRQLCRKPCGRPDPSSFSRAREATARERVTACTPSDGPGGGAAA", "test": "Binding screen and IC50 determination, δ2 (DOP) (h) (agonist radioligand)", "settings": "2.5E−05M", "description": "as §2"}, "α2C (h)": {"target": "T2, α2C (h) (Homo sapiens, UniProt P18825)", "T2 sequence (P18825 1-462)": "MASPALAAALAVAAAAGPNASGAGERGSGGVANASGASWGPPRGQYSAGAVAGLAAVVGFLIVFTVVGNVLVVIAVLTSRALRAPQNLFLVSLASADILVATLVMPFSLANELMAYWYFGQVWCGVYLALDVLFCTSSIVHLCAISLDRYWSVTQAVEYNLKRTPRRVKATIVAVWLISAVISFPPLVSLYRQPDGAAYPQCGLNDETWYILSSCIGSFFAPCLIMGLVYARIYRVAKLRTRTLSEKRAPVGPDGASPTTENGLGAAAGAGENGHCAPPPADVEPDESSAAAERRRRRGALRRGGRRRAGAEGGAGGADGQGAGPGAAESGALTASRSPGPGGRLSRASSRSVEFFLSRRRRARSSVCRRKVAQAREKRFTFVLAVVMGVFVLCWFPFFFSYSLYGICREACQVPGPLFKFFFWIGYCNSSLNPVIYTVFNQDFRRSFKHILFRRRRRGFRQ", "test": "Abuse liability binding screen, α2C (h) (antagonist radioligand)", "settings": "2.5E−05M", "description": "as §1, §2, §3"}, "CB1 (h)": {"target": "CB1 (h) (Homo sapiens, UniProt P21554)", "sequence (P21554 whole entry)": "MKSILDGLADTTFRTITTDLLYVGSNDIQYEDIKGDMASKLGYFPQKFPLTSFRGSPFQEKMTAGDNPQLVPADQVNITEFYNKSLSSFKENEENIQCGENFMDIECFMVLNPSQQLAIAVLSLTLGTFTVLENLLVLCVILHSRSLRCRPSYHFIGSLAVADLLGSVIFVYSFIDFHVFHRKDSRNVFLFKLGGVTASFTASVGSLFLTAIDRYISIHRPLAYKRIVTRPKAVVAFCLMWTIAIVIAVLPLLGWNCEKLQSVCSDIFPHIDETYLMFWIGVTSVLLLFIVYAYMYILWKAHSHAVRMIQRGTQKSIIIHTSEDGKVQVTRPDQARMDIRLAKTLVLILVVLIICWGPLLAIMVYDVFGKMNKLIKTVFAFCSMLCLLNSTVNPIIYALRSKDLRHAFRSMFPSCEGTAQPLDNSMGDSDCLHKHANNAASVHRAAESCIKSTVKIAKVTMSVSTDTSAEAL", "test": "Abuse liability binding screen, CB1 (h) (agonist radioligand)", "settings": "2.5E−05M", "description": "as §1, §2, §3"}, "D1 (h)": {"target": "D1 (h) (Homo sapiens, UniProt P21728)", "sequence (P21728 whole entry)": "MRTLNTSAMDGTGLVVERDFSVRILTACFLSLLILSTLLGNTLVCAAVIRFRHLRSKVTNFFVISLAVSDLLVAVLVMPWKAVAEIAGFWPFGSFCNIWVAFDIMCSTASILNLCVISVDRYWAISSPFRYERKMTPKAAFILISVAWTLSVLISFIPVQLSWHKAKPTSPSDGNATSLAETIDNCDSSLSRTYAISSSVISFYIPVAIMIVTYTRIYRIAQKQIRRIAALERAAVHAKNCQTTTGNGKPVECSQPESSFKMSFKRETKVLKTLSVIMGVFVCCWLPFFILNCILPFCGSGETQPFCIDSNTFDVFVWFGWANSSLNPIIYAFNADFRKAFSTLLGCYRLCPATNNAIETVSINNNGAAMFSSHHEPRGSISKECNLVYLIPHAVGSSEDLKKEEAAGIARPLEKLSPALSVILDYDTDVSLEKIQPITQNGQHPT", "test": "Abuse liability binding screen, D1 (h) (antagonist radioligand)", "settings": "2.5E−05M", "description": "as §1, §2, §3"}, "PCP": {"system": "PCP", "test": "Abuse liability binding screen, PCP (antagonist radioligand)", "settings": "2.5E−05M", "description": "as §2"}, "M5 (h)": {"target": "T3, M5 (h) (Homo sapiens, UniProt P08912)", "T3 sequence (P08912 1-532)": "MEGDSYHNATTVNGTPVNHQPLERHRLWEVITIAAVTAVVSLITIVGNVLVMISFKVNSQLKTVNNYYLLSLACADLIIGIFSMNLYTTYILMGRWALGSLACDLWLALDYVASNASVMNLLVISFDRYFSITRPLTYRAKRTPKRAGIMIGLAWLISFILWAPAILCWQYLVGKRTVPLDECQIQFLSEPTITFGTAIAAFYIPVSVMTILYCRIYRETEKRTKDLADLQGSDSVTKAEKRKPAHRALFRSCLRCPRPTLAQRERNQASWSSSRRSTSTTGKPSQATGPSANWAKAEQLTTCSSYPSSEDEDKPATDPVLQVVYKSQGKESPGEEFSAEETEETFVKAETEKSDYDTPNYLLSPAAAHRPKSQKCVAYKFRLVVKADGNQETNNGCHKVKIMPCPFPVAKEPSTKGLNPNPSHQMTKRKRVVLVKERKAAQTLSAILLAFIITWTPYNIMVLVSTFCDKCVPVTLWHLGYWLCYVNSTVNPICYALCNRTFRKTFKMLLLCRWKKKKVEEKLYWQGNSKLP", "test": "Abuse liability binding screen, M5 (h) receptor (antagonist radioligand)", "settings": "2.5E−05M", "description": "as §1, §2, §3"}, "[2]": {"system": "glycine (strychnine−insensitive)", "format": "binding", "settings": "2.5E−05M", "description": "as §2"}, "AMPA": {"system": "AMPA", "test": "Abuse liability binding screen, AMPA (antagonist radioligand)", "settings": "2.5E−05M", "description": "as §2"}}}
{"smiles": "O=C(O)[C@H]1O[C@@H](Oc2ccc3c4c2O[C@H]2[C@@H](O)CC[C@@]5(O)[C@@H](C3)N(CC3CCC3)CC[C@]425)[C@H](O)[C@@H](O)[C@@H]1O", "note": "[Compound M5, nalbuphine-3-beta-D-glucuronid]", "values": [{"measurement": "% Inhibition of Control Specific Binding 1st", "setting": "5-HT2B (h)", "value": "−3.4", "unit": "%"}, {"measurement": "% Inhibition of Control Specific Binding 2nd", "setting": "5-HT2B (h)", "value": 3.9, "unit": "%"}, {"measurement": "% Inhibition of Control Specific Binding Mean", "setting": "5-HT2B (h)", "value": 0.2, "unit": "%"}, {"measurement": "% Inhibition of Control Specific Binding 1st", "setting": "Dopamine transporter (h)", "value": "−2.0", "unit": "%"}, {"measurement": "% Inhibition of Control Specific Binding 2nd", "setting": "Dopamine transporter (h)", "value": 12.1, "unit": "%"}, {"measurement": "% Inhibition of Control Specific Binding Mean", "setting": "Dopamine transporter (h)", "value": 5.1, "unit": "%"}, {"measurement": "% Inhibition of Control Specific Binding 1st", "setting": "5-HT2c (h)", "value": "−7.9", "unit": "%"}, {"measurement": "% Inhibition of Control Specific Binding 2nd", "setting": "5-HT2c (h)", "value": "−8.2", "unit": "%"}, {"measurement": "% Inhibition of Control Specific Binding Mean", "setting": "5-HT2c (h)", "value": "−8.0", "unit": "%"}, {"measurement": "Cmax", "setting": "[1]", "value": 10.4, "unit": "µM"}, {"measurement": "% Inhibition of Control Specific Binding 1st", "setting": "N neuronal α4β2 (h)", "value": 0.8, "unit": "%"}, {"measurement": "% Inhibition of Control Specific Binding 2nd", "setting": "N neuronal α4β2 (h)", "value": "−2.0", "unit": "%"}, {"measurement": "% Inhibition of Control Specific Binding Mean", "setting": "N neuronal α4β2 (h)", "value": "−0.6", "unit": "%"}, {"measurement": "% Inhibition of Control Specific Binding 1st", "setting": "δ2 (DOP) (h)", "value": 13.9, "unit": "%"}, {"measurement": "% Inhibition of Control Specific Binding 2nd", "setting": "δ2 (DOP) (h)", "value": 18.2, "unit": "%"}, {"measurement": "% Inhibition of Control Specific Binding 1st", "setting": "α2C (h)", "value": 12.1, "unit": "%"}, {"measurement": "% Inhibition of Control Specific Binding 2nd", "setting": "α2C (h)", "value": 6.5, "unit": "%"}, {"measurement": "% Inhibition of Control Specific Binding Mean", "setting": "α2C (h)", "value": 9.3, "unit": "%"}, {"measurement": "% Inhibition of Control Specific Binding 1st", "setting": "CB1 (h)", "value": "−2.9", "unit": "%"}, {"measurement": "% Inhibition of Control Specific Binding 2nd", "setting": "CB1 (h)", "value": 12.9, "unit": "%"}, {"measurement": "% Inhibition of Control Specific Binding Mean", "setting": "CB1 (h)", "value": 5.0, "unit": "%"}, {"measurement": "% Inhibition of Control Specific Binding 1st", "setting": "D1 (h)", "value": "−12.1", "unit": "%"}, {"measurement": "% Inhibition of Control Specific Binding 2nd", "setting": "D1 (h)", "value": 2.2, "unit": "%"}, {"measurement": "% Inhibition of Control Specific Binding Mean", "setting": "D1 (h)", "value": "−5.0", "unit": "%"}, {"measurement": "% Inhibition of Control Specific Binding 1st", "setting": "PCP", "value": "−1.1", "unit": "%"}, {"measurement": "% Inhibition of Control Specific Binding 2nd", "setting": "PCP", "value": 4.9, "unit": "%"}, {"measurement": "% Inhibition of Control Specific Binding Mean", "setting": "PCP", "value": 1.9, "unit": "%"}, {"measurement": "% Inhibition of Control Specific Binding 1st", "setting": "M5 (h)", "value": 9.9, "unit": "%"}, {"measurement": "% Inhibition of Control Specific Binding 2nd", "setting": "M5 (h)", "value": 0.7, "unit": "%"}, {"measurement": "% Inhibition of Control Specific Binding Mean", "setting": "M5 (h)", "value": 5.3, "unit": "%"}, {"measurement": "% Inhibition of Control Specific Binding 1st", "setting": "[2]", "value": "−7.7", "unit": "%"}, {"measurement": "% Inhibition of Control Specific Binding 2nd", "setting": "[2]", "value": "−8.6", "unit": "%"}, {"measurement": "% Inhibition of Control Specific Binding Mean", "setting": "[2]", "value": "−8.1", "unit": "%"}, {"measurement": "% Inhibition of Control Specific Binding 1st", "setting": "AMPA", "value": "−8.0", "unit": "%"}, {"measurement": "% Inhibition of Control Specific Binding 2nd", "setting": "AMPA", "value": "−11.1", "unit": "%"}, {"measurement": "% Inhibition of Control Specific Binding Mean", "setting": "AMPA", "value": "−9.6", "unit": "%"}]}
